Assays:
[1] = single dose of zinc, healthy young adult women, blood at 0, 1, 2, 3 and 4 hours
Description: Zinc glycinate has not been studied at all in people who have had bariatric surgery. Furthermore, in published studies on any types of people, zinc glycinate has not been compared much to other forms of zinc. Thus, an unpublished comparative study was done in healthy young adult women that compared zinc glycinate to two other forms of zinc. The study utilized an indirect approach of absorption. In this approach, a single dose of zinc was given to young adult women; blood was taken at 0, 1, 2, 3, and 4 hours. Both plasma and red blood cells (erythrocytes) were analyzed for zinc and for each, an area under the curve graph was calculated for zinc content versus time.

[2] = Iron status as ferritin/CRP ratio after bariatric surgery; assay type: in vivo, human; conditions: added to meal replacement product, same amount of iron for each group
Description: Design. Young adult females who were about to have bariatric surgery were recruited. Blood and urine samples were taken before surgery and 6 weeks later. People were divided into two groups. One group drank 2 servings per day of the new product related to this patent (N=12) for 6 weeks. The other group drank 2 servings of a current meal replacement product and also took other supplements including sublingual vitamin B12. The new product had the B12 put right in the meal replacement product. The vitamin is put in the product at a daily dose that is very high relative to normal recommendations, and high relative to what was used for injections or sublingual administration. Also, a coenzyme form of the vitamin was used in the meal replacement product.
Iron status was measured as ferritin/CRP ratios (ferritin reflects iron status but can also be influenced by inflammation; CRP only reflects inflammation).

Row | Compound | erythrocyte (red blood cell) zinc area under the curve [1] | plasma zinc area under the curve [1] | iron status (ferritin/CRP ratios) [2]
1 | NCC(=O)[O-].NCC(=O)[O-].[Zn+2] [Zinc glycinate, zinc glycinate] | outperformed zinc oxide and gluconate | outperformed zinc oxide and gluconate | –
2 | Iron Glycinate Chelate | – | – | improved iron status to about the same degree as a conventional bariatric meal replacement product+iron lozenges
